Data on five compounds can be found in ChEMBL document CHEMBL3588782, “Synthesis, antiribosomal and antibacterial activity of 4-O-glycopyranosyl paromomycin aminoglycoside antibiotics” (Medchemcomm, 2014).

In test [1] the test system is Staphylococcus aureus. The test is described as follows: Antibacterial activity against methicillin-resistant Staphylococcus aureus isolate AG 042 by broth microdilution assay. It counts as functional.
A short description of test [2]: Inhibition of human ribosome containing eukaryotic ribosomal RNA A-site Cyt14 allele in rabbit reticulocyte lysates assessed as reduction in ribosome-mediated protein synthesis in presence of S-30 extracts by fire fly luciferase synthesis based cell-free translation assay.
The test system of test [3] is Escherichia coli. Briefly: Antibacterial activity against Escherichia coli isolate 001 by broth microdilution assay. It counts as functional. Background: Dilution methods test growth across graded concentrations, often in twofold steps.
The target of a further test is 80S Ribosome. The test is described as follows: Inhibition of human ribosome containing eukaryotic wild type ribosomal RNA A-site in rabbit reticulocyte lysates assessed as reduction in ribosome-mediated protein synthesis in presence of S-30 extracts by fire fly luciferase synthesis based cell-free translation assay.
The nature of test [4]: Inhibition of Mycobacterium smegmatis ribosome containing ribosomal RNA A-site G1491C mutant in rabbit reticulocyte lysates assessed as reduction in ribosome-mediated protein synthesis in presence of S-30 extracts by fire fly luciferase synthesis based cell-free translation assay. More on the design: species or system Mycolicibacterium smegmatis.
The nature of test [5]: Inhibition of Mycobacterium smegmatis ribosome containing ribosomal RNA A-site G1491A mutant in rabbit reticulocyte lysates assessed as reduction in ribosome-mediated protein synthesis in presence of S-30 extracts by fire fly luciferase synthesis based cell-free translation assay. More on the design: species or system Mycolicibacterium smegmatis.
For test [6], the system named is Escherichia coli. Briefly: Antibacterial activity against Escherichia coli isolate 055 by broth microdilution assay. Format: functional.
Test [7] relates to Escherichia coli. Briefly: Antibacterial activity against Escherichia coli isolate 003 by broth microdilution assay. It counts as functional.
The test system of a further test is Ribosome. The test is described as follows: Inhibition of ribosome-mediated protein synthesis in rabbit reticulocyte lysates in presence of S-30 extracts by fire fly luciferase synthesis based cell-free translation assay. Also noted: species or system Oryctolagus cuniculus.
A short description of test [8]: Inhibition of Mycobacterium smegmatis ribosome containing ribosomal RNA A-site A1408G mutant in rabbit reticulocyte lysates assessed as reduction in ribosome-mediated protein synthesis in presence of S-30 extracts by fire fly luciferase synthesis based cell-free translation assay. Also noted: species or system Mycolicibacterium smegmatis.
Test [9] in a line: Inhibition of human ribosome containing eukaryotic ribosomal RNA A-site A1555G mutant in rabbit reticulocyte lysates assessed as reduction in ribosome-mediated protein synthesis in presence of S-30 extracts by fire fly luciferase synthesis based cell-free translation assay.
For another test, the target named is Bacterial 70S ribosome. Briefly: Inhibition of Mycobacterium smegmatis ribosome containing wild type ribosomal RNA A-site in rabbit reticulocyte lysates assessed as reduction in ribosome-mediated protein synthesis in presence of S-30 extracts by fire fly luciferase synthesis based cell-free translation assay. More on the design: species or system Mycolicibacterium smegmatis.

The test system of test [10] is Escherichia coli. The test is described as follows: Antibacterial activity against Escherichia coli isolate 006 by broth microdilution assay. Format: functional.
Test [11] relates to Staphylococcus aureus. Briefly: Antibacterial activity against methicillin-resistant Staphylococcus aureus isolate AG 038 by broth microdilution assay. It counts as functional.
In test [12] the test system is Staphylococcus aureus. Briefly: Antibacterial activity against methicillin-resistant Staphylococcus aureus isolate AG 044 by broth microdilution assay. Format: functional.
Test [13] relates to Staphylococcus aureus. The test is described as follows: Antibacterial activity against methicillin-resistant Staphylococcus aureus isolate AG 039 by broth microdilution assay. It counts as functional.

The structures appear in SMILES notation. Values after ≈ are worked out from the molar mass of the structure shown.

The MIC is the smallest concentration in the dilution series that meets the test's criterion for growth inhibition. Read a high MIC as a need for much substance. The IC50 is the midpoint of a concentration-inhibition curve. On to `NC[C@@H]1O[C@H](O[C@H]2[C@@H](O)[C@H](O[C@@H]3[C@@H](O)[C@H](N)C[C@H](N)[C@H]3O[C@H]3O[C@H](CO)[C@@H](O)[C@H](O)[C@H]3N)O[C@@H]2CO)[C@H](N)[C@@H](O)[C@@H]1O` [PAROMOMYCIN], for which the MIC was over 256 µg/mL with Staphylococcus aureus [1]; 16 µg/mL (≈ 26 µM) in the test on Escherichia coli [3]; 8 µg/mL (≈ 13 µM) against Escherichia coli [6]; 8 µg/mL (≈ 13 µM) in the test on Escherichia coli [7]; 2 µg/mL (≈ 3.25 µM) in the test with Escherichia coli [10]; 4 µg/mL (≈ 6.5 µM) against Staphylococcus aureus [11]. The MIC against Staphylococcus aureus [12] is 4 µg/mL (≈ 6.5 µM); against Staphylococcus aureus [13], over 256 µg/mL. In addition, the IC50 in [2] is 10.39 µg/mL; at 80S Ribosome, 82.1 µM; in test [4], 10.42 µg/mL; in test [5] it was 0.57 µg/mL; in the test on Ribosome it was 9.78 µg/mL; in test [8], 0.26 µg/mL. Besides, the figures for the IC50 (in test [9]; on Bacterial 70S ribosome) were 5.83 µg/mL and 0.0487 µM, respectively.
With `NC[C@@H]1O[C@H](O[C@H]2[C@@H](O)[C@H](O[C@@H]3[C@@H](O)[C@H](N)C[C@H](N)[C@H]3O[C@H]3O[C@H](CO)[C@@H](OCO[C@H]4O[C@H](CO)[C@@H](O)[C@H](O)[C@H]4O)[C@H](O)[C@H]3N)O[C@@H]2CO)[C@H](N)[C@@H](O)[C@@H]1O`, the MIC with Staphylococcus aureus [1] is 128 µg/mL (≈ 158 µM); with Escherichia coli [3] it was at least 128 µg/mL; in the test on Escherichia coli [6] it was at least 128 µg/mL; in the test with Escherichia coli [7] it was at least 128 µg/mL; against Escherichia coli [10] it was 64 µg/mL (≈ 79.2 µM); against Staphylococcus aureus [11], 64 µg/mL (≈ 79.2 µM). Besides, the minimum inhibitory concentration (MIC) with Staphylococcus aureus [12] is 64 µg/mL (≈ 79.2 µM); in the test on Staphylococcus aureus [13] it was at least 128 µg/mL. Besides, the half-maximal inhibitory concentration (IC50) in test [2] was 130.61 µg/mL; on 80S Ribosome, 29.8 µM; in [4], 200.3 µg/mL; in test [5], 33.45 µg/mL; with Ribosome, 43.14 µg/mL; in [8], 17.16 µg/mL. Moreover, the results for the IC50 (in [9]; on Bacterial 70S ribosome) were 96.03 µg/mL and 0.384 µM, respectively.
In the case of `NC[C@@H]1O[C@H](O[C@H]2[C@@H](O)[C@H](O[C@@H]3[C@@H](O)[C@H](N)C[C@H](N)[C@H]3O[C@H]3O[C@H](CO)[C@@H](O[C@@H]4O[C@H](CO)[C@H](O)[C@H](O)[C@H]4O)[C@H](O)[C@H]3N)O[C@@H]2CO)[C@H](N)[C@@H](O)[C@@H]1O`, the minimum inhibitory concentration (MIC) is over 128 µg/mL with Staphylococcus aureus [1]; over 128 µg/mL with Escherichia coli [3]; over 128 µg/mL in the test with Escherichia coli [6]; over 128 µg/mL against Escherichia coli [7]; 128 µg/mL (≈ 165 µM) in the test on Escherichia coli [10]; at least 128 µg/mL in the test with Staphylococcus aureus [11]. Also, the MIC against Staphylococcus aureus [12] is over 128 µg/mL; in the test on Staphylococcus aureus [13] it was at least 128 µg/mL. In addition, the IC50 in test [2] was 286.76 µg/mL; at 80S Ribosome, 182 µM; in test [4], 623.16 µg/mL; in test [5], 78.05 µg/mL; in the test on Ribosome it was 104.57 µg/mL; in test [8] it was 36.46 µg/mL. Moreover, the IC50 in test [9] is 209.22 µg/mL; on Bacterial 70S ribosome it was 1.95 µM.
`NC[C@@H]1O[C@H](O[C@H]2[C@@H](O)[C@H](O[C@@H]3[C@@H](O)[C@H](N)C[C@H](N)[C@H]3O[C@H]3O[C@H](CO)[C@@H](O[C@H]4O[C@H](CO)[C@@H](O)[C@H](O)[C@H]4O)[C@H](O)[C@H]3N)O[C@@H]2CO)[C@H](N)[C@@H](O)[C@@H]1O`: the MIC against Staphylococcus aureus [1] was 32 µg/mL (≈ 41.1 µM); against Escherichia coli [3] it was 128 µg/mL (≈ 165 µM); in the test with Escherichia coli [6] it was 128 µg/mL (≈ 165 µM); against Escherichia coli [7] it was 128 µg/mL (≈ 165 µM); in the test on Escherichia coli [10] it was 16 µg/mL (≈ 20.6 µM); in the test on Staphylococcus aureus [11], 32 µg/mL (≈ 41.1 µM). The MIC is 16 µg/mL (≈ 20.6 µM) in the test on Staphylococcus aureus [12] and 32 µg/mL (≈ 41.1 µM) with Staphylococcus aureus [13]. For the same compound, the IC50 in test [2] is 46.26 µg/mL; on 80S Ribosome, 2.39 µM; in test [4], 109.01 µg/mL; in [5] it was 27.08 µg/mL; in the test on Ribosome it was 30.64 µg/mL; in [8] it was 21.84 µg/mL. Further, the values for the half-maximal inhibitory concentration (IC50) (in test [9]; on Bacterial 70S ribosome) were 13.98 µg/mL and 0.411 µM, respectively.
Consider `NC[C@@H]1O[C@H](O[C@H]2[C@@H](O)[C@H](O[C@@H]3[C@@H](O)[C@H](N)C[C@H](N)[C@H]3O[C@H]3O[C@H](CO)[C@@H](O[C@@H]4O[C@H](CO)[C@@H](O)[C@H](O)[C@H]4O)[C@H](O)[C@H]3N)O[C@@H]2CO)[C@H](N)[C@@H](O)[C@@H]1O`, for which the MIC against Staphylococcus aureus [1] was over 128 µg/mL; against Escherichia coli [3] it was over 128 µg/mL; with Escherichia coli [6], over 128 µg/mL; with Escherichia coli [7] it was over 128 µg/mL; in the test with Escherichia coli [10] it was 32 µg/mL (≈ 41.1 µM); in the test on Staphylococcus aureus [11], 128 µg/mL (≈ 165 µM). The MIC in the test with Staphylococcus aureus [12] was 128 µg/mL (≈ 165 µM); against Staphylococcus aureus [13] it was at least 128 µg/mL. In addition, the IC50 in test [2] was 117.53 µg/mL; at 80S Ribosome, 76 µM; in [4] it was 294.83 µg/mL; in [5], 15.5 µg/mL; in the test on Ribosome, 60.75 µg/mL; in [8] it was 9.32 µg/mL. Further, the IC50 is 83.64 µg/mL in test [9] and 0.476 µM on Bacterial 70S ribosome.
